Measured values from US6124305A, “Use of N-(substituted glycyl)-2-cyanopyrrolidines in inhibiting dipeptidyl peptidase-IV” (Novartis AG, priority 1999, dated 2000).
Counter-ions that a name gives are not always drawn.

What was measured:
rat plasma DPP-IV = biological target: T1, rat plasma DPP-IV (Rattus norvegicus, UniProt P14740); assay: rat plasma DPP-IV inhibition assay; format: biochemical; conditions: H-Glycine-Proline-AMC substrate, pH 7.8, room temperature, 20 min
T1 construct: DPP-IV activity in human and rat plasma; from tissue; host or cells: rat plasma
T1 sequence (P14740 37-767 limits assumed): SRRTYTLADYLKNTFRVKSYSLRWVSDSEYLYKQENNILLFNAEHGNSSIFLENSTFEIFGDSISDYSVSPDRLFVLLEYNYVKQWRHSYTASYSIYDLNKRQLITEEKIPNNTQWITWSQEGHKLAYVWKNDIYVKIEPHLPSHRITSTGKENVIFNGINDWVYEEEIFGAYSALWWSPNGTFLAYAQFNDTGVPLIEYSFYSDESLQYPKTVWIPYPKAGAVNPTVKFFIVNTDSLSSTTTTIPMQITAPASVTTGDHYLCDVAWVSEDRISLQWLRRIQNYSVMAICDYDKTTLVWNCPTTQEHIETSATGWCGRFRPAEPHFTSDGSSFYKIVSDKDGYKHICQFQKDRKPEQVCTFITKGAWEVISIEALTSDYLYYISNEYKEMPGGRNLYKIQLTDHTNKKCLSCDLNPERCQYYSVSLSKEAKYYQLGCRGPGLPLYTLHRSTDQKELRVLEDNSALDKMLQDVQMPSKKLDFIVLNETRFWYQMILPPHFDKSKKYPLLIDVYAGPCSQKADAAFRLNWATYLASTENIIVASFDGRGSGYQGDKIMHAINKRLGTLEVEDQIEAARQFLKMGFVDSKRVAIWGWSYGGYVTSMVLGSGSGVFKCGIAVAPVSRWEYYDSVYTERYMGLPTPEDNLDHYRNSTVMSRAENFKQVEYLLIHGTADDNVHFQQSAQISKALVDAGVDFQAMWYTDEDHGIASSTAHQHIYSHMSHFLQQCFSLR
Description: Briefly, five μl of plasma are added to 96-well flat-bottom microtiter plates (Falcon), followed by the addition of 5 μl of 80 mM MgCl2 in incubation buffer (25 mM HEPES, 140 mM NaCl, 1% RIA-grade BSA, pH 7.8). After a 5 min. incubation at room temperature, the reaction is initiated by the addition of 10 μl of incubation buffer containing 0.1 mM substrate (H-Glycine-Proline-AMC; AMC is 7-amino-4-methylcoumarin). The plates are covered with aluminum foil (or kept in the dark) and incubated at room temperature for 20 min. […] A fluorescence-concentration curve of free AMC is generated using 0-50 μM solutions of AMC in assay buffer. The curve generated is linear and is used for interpolation of substrate consumption (catalytic activity in nmoles substrate cleaved/min). As with the previous assay, the potency of the test compounds as DPP-IV inhibitors, expressed as IC50, is calculated from 8-point, dose-response curves using a 4 parameter logistic function.

DPP-IV = biological target: T2, DPP-IV (Homo sapiens, UniProt P27487); assay: Caco-2 DPP-IV Assay (inhibition of DPP-IV activity from human colonic carcinoma cell extracts); format: biochemical; conditions: human Caco-2 cell extract, H-Alanine-Proline-pNA substrate, pH 7.4, room temperature, 10 minutes
T2 construct: Cell extract is prepared from cells solubilized in 10 mM Tris-HCl; host or cells: Caco-2
T2 sequence (P27487 whole entry): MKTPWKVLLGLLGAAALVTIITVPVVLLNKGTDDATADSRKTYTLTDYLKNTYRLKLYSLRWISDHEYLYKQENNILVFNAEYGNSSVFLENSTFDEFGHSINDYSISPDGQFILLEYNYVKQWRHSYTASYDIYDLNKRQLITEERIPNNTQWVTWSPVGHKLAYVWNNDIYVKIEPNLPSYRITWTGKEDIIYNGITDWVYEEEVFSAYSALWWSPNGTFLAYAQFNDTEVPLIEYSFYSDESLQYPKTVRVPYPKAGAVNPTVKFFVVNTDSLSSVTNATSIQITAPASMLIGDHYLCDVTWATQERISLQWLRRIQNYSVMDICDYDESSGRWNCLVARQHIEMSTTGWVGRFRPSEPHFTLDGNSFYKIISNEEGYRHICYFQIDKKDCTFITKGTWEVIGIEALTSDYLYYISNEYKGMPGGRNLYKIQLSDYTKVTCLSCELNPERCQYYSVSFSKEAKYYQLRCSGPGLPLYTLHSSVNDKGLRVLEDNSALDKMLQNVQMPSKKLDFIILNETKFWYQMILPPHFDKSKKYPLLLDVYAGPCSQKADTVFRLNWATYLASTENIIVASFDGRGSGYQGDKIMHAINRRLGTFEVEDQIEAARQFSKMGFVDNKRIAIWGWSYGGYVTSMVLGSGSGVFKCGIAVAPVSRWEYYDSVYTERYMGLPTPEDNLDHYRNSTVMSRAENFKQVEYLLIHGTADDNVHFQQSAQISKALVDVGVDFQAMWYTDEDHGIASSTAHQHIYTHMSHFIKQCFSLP

human plasma DPP-IV = biological target: T3, human plasma DPP-IV (Homo sapiens, UniProt P27487); assay: human plasma DPP-IV inhibition assay; format: biochemical; conditions: H-Glycine-Proline-AMC substrate, pH 7.8, room temperature, 20 min
T3 construct: DPP-IV activity in human and rat plasma; from tissue; host or cells: human plasma
T3 sequence (P27487 39-766 limits assumed): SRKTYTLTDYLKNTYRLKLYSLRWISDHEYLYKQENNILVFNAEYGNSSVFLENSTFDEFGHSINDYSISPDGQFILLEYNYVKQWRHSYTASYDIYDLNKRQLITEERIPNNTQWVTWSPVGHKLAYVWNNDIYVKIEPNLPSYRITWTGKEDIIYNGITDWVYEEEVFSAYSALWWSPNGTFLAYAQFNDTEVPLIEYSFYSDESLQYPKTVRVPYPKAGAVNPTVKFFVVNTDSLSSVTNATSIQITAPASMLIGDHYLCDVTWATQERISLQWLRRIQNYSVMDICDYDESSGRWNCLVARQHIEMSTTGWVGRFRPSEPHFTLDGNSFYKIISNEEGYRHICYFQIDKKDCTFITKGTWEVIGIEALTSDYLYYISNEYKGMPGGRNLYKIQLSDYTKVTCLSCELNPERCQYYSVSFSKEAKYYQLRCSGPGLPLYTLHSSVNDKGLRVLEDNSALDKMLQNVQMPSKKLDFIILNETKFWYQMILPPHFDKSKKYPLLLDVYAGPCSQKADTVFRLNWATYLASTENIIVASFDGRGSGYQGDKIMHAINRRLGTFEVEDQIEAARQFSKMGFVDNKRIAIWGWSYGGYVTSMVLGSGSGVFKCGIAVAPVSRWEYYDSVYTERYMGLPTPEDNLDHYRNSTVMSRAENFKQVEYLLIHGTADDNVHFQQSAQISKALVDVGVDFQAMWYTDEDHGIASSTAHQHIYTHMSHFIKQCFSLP

insulin resistant rats = assay: early insulin response to an oral glucose challenge in insulin resistant rats; format: in vivo, Male Sprague-Dawley rats; conditions: 10 μmol/kg orally in CMC, high fat diet rats, oral glucose 1 g/kg 30 minutes after compound; % increase of the mean of the control animals

Compound | IC50 (rat plasma DPP-IV) [nM] | IC50 (DPP-IV) [nM] | IC50 (human plasma DPP-IV) [nM] | Increase of Insulin Response at 10 μmol/kg (insulin resistant rats) [%]
N#Cc1ccc(NCCNCC(=O)N2CCC[C@H]2C#N)nc1 [Ex. 3, 1-[2-[(5-cyanopyridin-2-yl)amino]ethylamino]acetyl-2-cyano-(S)-pyrrolidine dihydrochloride] | – | – | – | 66
N#C[C@@H]1CCCN1C(=O)CNC1(CO)CCCC1 [Ex. 5, 1-[(1-hydroxymethylcyclopent-1-yl)amino]acetyl-2-cyano-(S)-pyrrolidine] | – | – | – | 108
N#C[C@@H]1CCCN1C(=O)CNCCNc1nccc(Cl)n1 [Ex. 7A, 1-[2-[(4-chloropyrimidin-2-yl)amino]ethylamino]acetyl-2-cyano-(S)-pyrrolidine] | – | 165 | – | –
N#C[C@@H]1CCCN1C(=O)CNCCNc1ncccc1Cl [Ex. 7B, 1-[2-[(3-chloropyridin-2-yl)amino]ethylamino]acetyl-2-cyano-(S)-pyrrolidine] | – | 175 | – | –
N#C[C@@H]1CCCN1C(=O)CNCCNc1nccc(C(F)(F)F)n1 [Ex. 7C] | – | 290 | – | –
N#C[C@@H]1CCCN1C(=O)CNCCc1ccccc1Cl [Ex. 7D, 1-[(2-chlorophenyl)ethylamino]acetyl-2-cyano-(S)-pyrrolidine] | – | 382 | – | –
N#C[C@@H]1CCCN1C(=O)CNCCNc1ccc([N+](=O)[O-])cn1 [Ex. 8, 1-[2-[(5-nitropyridin-2-yl)amino]ethylamino]acetyl-2-cyano-(S)pyrrolidine] | – | – | – | 144
N#C[C@@H]1CCCN1C(=O)CNCCNc1ncc(C(F)(F)F)cc1Cl [Ex. 9A, 1-[2-[(3-chloro-5-trifluoromethylpyridin-2-yl)amino]ethylamino]acetyl-2-cyano-(S)-pyrrolidine] | – | 990 | – | –
N#C[C@@H]1CCCN1C(=O)CNCCNc1ncc(Cl)cc1Cl [Ex. 9C, 1-[2-[(3,5-dichloropyridin-2-yl)amino]ethylamino]acetyl-2-cyano-(S)-pyrrolidine] | – | 295 | – | –
COc1cc(Br)c(CCNCC(=O)N2CCC[C@H]2C#N)cc1OC [Ex. 11, 1-[2-(2-bromo-4,5-dimethoxyphenyl)ethylamino]acetyl-2-cyano-(S)-pyrrolidine] | – | 215 | – | –
CC(C)OCCCNCC(=O)N1CCC[C@H]1C#N [Ex. 12, 1-[3-(isopropoxy)propylamino]acetyl-2-cyano-(S)-pyrrolidine monohydrochloride] | 38 | 279 | 95 | 59
N#C[C@@H]1CCCN1C(=O)CNCCCN1CCCC1=O [Ex. 14, 1-[3-(2-oxo-pyrrolidin-1-yl)propylamino]acetyl-2-cyano-(S)-pyrrolidine monohydrochloride] | 24 | 110 | 95 | –
CCOc1ccc(CCNCC(=O)N2CCC[C@H]2C#N)cc1 [Ex. 16, Pyrrolidine, 1-[[2-(4-ethoxyphenyl)ethyl]amino]acetyl-2-cyano-, (S)--, monohydrochloride] | 60 | 130 | 170 | –
N#C[C@@H]1CCCN1C(=O)CN[C@@H]1CCN(Cc2ccccc2)C1 [Ex. 17, Pyrrolidine, 1-[(1-phenylmethyl-3-pyrrolidinyl)amino]acetyl-2-cyano-, (S)--(R)--, dihydrochloride] | 120 | 60 | 250 | –
COc1ccc(CCNCC(=O)N2CCC[C@H]2C#N)cc1 [Ex. 18, Pyrrolidine, 1-[[2-(4-methoxyphenyl)ethyl]amino]acetyl-2-cyano-, (S)--, monohydrochloride] | 70 | 100 | 160 | –
COc1cccc(CCNCC(=O)N2CCC[C@H]2C#N)c1 [Ex. 19, Pyrrolidine, 1-[[2-(3-methoxyphenyl)ethyl]amino]acetyl-2-cyano-, (S)--, monohydrochloride] | 50 | 120 | 180 | –
CN(CCCNCC(=O)N1CCC[C@H]1C#N)c1ccccc1 [Ex. 22, Pyrrolidine, 1-[[3-[(phenyl)(methyl)amino]propyl]amino]acetyl-2-cyano-, (S)--, dihydrochloride] | 60 | 150 | 170 | –
COc1ccc(CCNCC(=O)N2CCC[C@H]2C#N)cc1OC [Ex. 23, Pyrrolidine, 1-[2-[(3,4-dimethoxyphenyl)ethyl]amino]acetyl-2-cyano-, (S)--, monohydrochloride] | 40 | 50 | 40 | –

Continued, in another order:

IC50 (rat plasma DPP-IV) [nM] | IC50 (DPP-IV) [nM] | IC50 (human plasma DPP-IV) [nM] | Compound | Increase of Insulin Response at 10 μmol/kg (insulin resistant rats) [%]
140 | 140 | 110 | CC1(C)C2CCC(CNCC(=O)N3CCC[C@H]3C#N)C1C2 (single isomer, unassigned) [Ex. 25, Pyrrolidine, 1-[[(6,6-dimethylbicyclo[3.1.1]hept-2-yl)methyl]amino]acetyl-2-cyano-[1S[1α,2α(S*),5α]]-(S)--, monohydrochloride] | –
70 | 170 | 240 | COc1ccc(OC)c(CCNCC(=O)N2CCC[C@H]2C#N)c1 [Ex. 26, Pyrrolidine, 1-[[2-(2,5-dimethoxyphenyl)ethyl]amino]acetyl-2-cyano-. (S)--, monohydrochloride] | –
160 | 310 | 150 | N#C[C@@H]1CCCN1C(=O)CNCCC1=CCCCC1 [Ex. 27, Pyrrolidine, 1-[[2-(1-cyclohexenyl-1-yl)ethyl]amino]acetyl-2-cyano-, (S)--, monohydrochloride] | –
90 | 650 | 80 | N#C[C@@H]1CCCN1C(=O)CNCCc1ccccn1 [Ex. 30, Pyrrolidine, 1-[[2-(2-pyridinyl)ethyl]amino]acetyl-2-cyano-, (S)--, dihydrochloride] | –
340 | 130 | 1090 | N#C[C@@H]1CCCN1C(=O)CNCc1ccccc1Sc1ccccc1CO [Ex. 35, Pyrrolidine, 1-[[[2-[(2-hydroxymethyl)phenyl]thio]phenylmethyl]amino]acetyl-2-cyano-,(S)--, monohydrochloride] | –
80 | 160 | 170 | COc1ccccc1CCNCC(=O)N1CCC[C@H]1C#N [Ex. 36, Pyrrolidine, 1-[[2-(2-methoxyphenyl)ethyl]amino]acetyl-2-cyano-, (S)--, monohydrochloride] | –
200 | 380 | 220 | N#C[C@@H]1CCCN1C(=O)CNCCc1ccc(Cl)cc1Cl [Ex. 39, Pyrrolidine, 1-[[2-(2,4-dichlorophenyl)ethyl]amino]acetyl-2-cyano-, (S), monohydrochloride] | –
50 | 140 | 100 | C[C@H](NCC(=O)N1CCC[C@H]1C#N)[C@H](O)c1ccccc1 [Ex. 41, Pyrrolidine, 1-[(2-hydroxy-2-phenylethyl)amino]acetyl-2-cyano-[2S-[1R*,2S*]-monohydrochloride] | –
180 | 240 | 140 | N#C[C@@H]1CCCN1C(=O)CNCCc1ccccc1F [Ex. 42, Pyrrolidine, 1-[[2-(2-fluorophenyl)ethyl]amino]acetyl-2-cyano-, (S)--, monohydrochloride] | –
60 | 150 | 280 | COc1cc(CCNCC(=O)N2CCC[C@H]2C#N)cc(OC)c1 [Ex. 46, Pyrrolidine, 1-[2-[(3,5-dimethoxyphenyl)ethyl]amino]acetyl-2-cyano-, (S)--, monohydrochloride] | –
40 | 60 | 130 | N#C[C@@H]1CCCN1C(=O)CNC1CCN(Cc2ccccc2)CC1 [Ex. 66, Pyrrolidine, 1-[(1-phenylmethyl-4-piperidinyl)amino]acetyl-2-cyano-, (S)--, monohydrochloride] | –
